Measurements reported in paper PMC3853091, “Antiproliferative effects of lanreotide autogel in patients with progressive, well-differentiated neuroendocrine tumours: a Spanish, multicentre, open-label, single arm phase II study” (BMC Cancer, 2013).

Key:
advanced pancreatic NET = conditions: patients with advanced pancreatic NET; cited from earlier work
Excerpt: Other treatment modalities that have shown promise as antiproliferative agents for advanced NET include mTOR or tyrosine kinase inhibitors. […] The combination of everolimus and octreotide LAR also stabilised tumour growth in patients with carcinoid NET [32].

[1] = Lanreotide trough serum levels (validated RIA with 125I-labelled lanreotide); type: in vivo, human (patients); conditions: human, subcutaneous, mean ± SD
Description: Efficacy (radiological, biochemical and clinical) and pharmacokinetic (PK) assessments were performed every 12 weeks and at the final study evaluation, 28 (±5) days after the final lanreotide dose. AEs and concomitant treatments were recorded at each 4-weekly treatment visit and at the final evaluation.
(§1) Safety analyses included AEs (coded using the Medical Dictionary for Regulatory Activities [MedDRA] version 11.1), vital signs, and serum haematology and biochemistry. Blood samples for analysis of lanreotide trough serum levels and, if applicable, for evaluation of the presence and specificity of anti-lanreotide antibodies were collected at screening and at weeks 8, 20, 32, 44, 56, 68 and 92, just before drug administration.
(§2) Tumour biomarkers, serum lanreotide concentrations and anti-lanreotide antibodies were analysed in a central laboratory. Serum CgA levels were determined using a radioimmunoassay (RIA) with coefficients of variation (CVs) of 6–10% (Cisbio International, Gif-sur-Yvette, France), and urinary 5-HIAA levels were measured using high-performance liquid chromatography with CVs of 4–6% (Bio-rad Laboratories GmbH, München, Germany). Circulating lanreotide concentrations were measured using a validated RIA with [^125I]-labelled lanreotide as a competitor for the quantification of lanreotide. During assay validation, the lower limit of quantification for lanreotide was 0.078 ng/mL and CVs were 2.3–13.6%. Anti-lanreotide antibodies were detected using a radioimmunoprecipitation assay (RIPA) with […] for immune-complex precipitation and [^125I]-labelled lanreotide as the tracer. Results were expressed as the percentage of precipitation. During validation, the assay sensitivity was 1/3,200,000 using a rabbit polyclonal anti-lanreotide antibody and intra- and inter-assay precision values were <5.7% and <5.3%, respectively. The screening assay cutpoint was determined as the 95th percentile of the distribution obtained with pre-treatment samples from 22 patients from the study. […]

[2] = Anti-lanreotide antibodies (radioimmunoprecipitation assay with confirmatory competition); type: in vivo, human (patients); conditions: RIPA
Excerpt: as §1
as §2, with “precipitation.” for “precipitation. During validation, the assay sensitivity was 1/3,200,000 using a rabbit polyclonal anti-lanreotide antibody and intra- and inter-assay precision values were <5.7% and <5.3%, respectively. The screening assay cutpoint was determined as the 95th percentile of the distribution obtained with pre-treatment samples from 22 patients from the study.”

Question: For CO[C@H]1C[C@@H]2CC[C@@H](C)[C@@](O)(O2)C(=O)C(=O)N2CCCC[C@H]2C(=O)O[C@H]([C@H](C)C[C@@H]2CC[C@@H](OCCO)[C@H](OC)C2)CC(=O)[C@H](C)/C=C(\C)[C@@H](O)[C@@H](OC)C(=O)[C@H](C)C[C@H](C)/C=C/C=C/C=C/1C [everolimus], which PFS (advanced pancreatic NET) is on record?
Answer: Its PFS is 11.0 months.

Question: For CC(C)[C@@H]1NC(=O)[C@H](CCCCN)NC(=O)[C@@H](Cc2c[nH]c3ccccc23)NC(=O)[C@H](Cc2ccc(O)cc2)NC(=O)[C@@H](NC(=O)[C@H](N)Cc2ccc3ccccc3c2)CSSC[C@@H](C(=O)N[C@H](C(N)=O)[C@@H](C)O)NC1=O [lanreotide], which level at 3360 h ([1]; week 20, after five injections of 120 mg every 28 days, n = 27, read-out: Steady-state trough serum lanreotide level) is on record?
Answer: The level at 3360 h was 5.2 ± 2 ng/mL.

Question: And the level at 5376 h ([1]; week 32, 120 mg every 28 days, read-out: Mean trough serum lanreotide level (maximum))?
Answer: The level at 5376 h was 6 ± 2.9 ng/mL.

Question: What about the level at 15456 h ([1]; week 92, 120 mg every 28 days, read-out: Mean trough serum lanreotide concentration) of the same molecule?
Answer: The level at 15456 h was 5.3 ± 2 ng/mL.

Question: What about the “Patients with anti-lanreotide antibodies detected” value ([2]; assessments after week 8, two patients, one of them temporarily) of the same molecule?
Answer: Its value is 7%.

Question: And the “Anti-lanreotide antibodies in serum” value ([2]; week 8, all 25 patients tested)?
Answer: Its value is “negative”.

Question: Which PFS (advanced pancreatic NET) does the source give for CCN(CC)CCNC(=O)c1c(C)[nH]c(/C=C2\C(=O)Nc3ccc(F)cc32)c1C [sunitinib] here?
Answer: The PFS was 11.4 months.
